We go through four molecules from publication PMC7473988 (Journal of Experimental Pharmacology, 2020).

For test [1], the system named is 5-HT in rat and mouse PFC. Particulars: cited from earlier work.
Test [2] has as its target T1, SERT (Homo sapiens, UniProt P31645). Particulars: cited from earlier work.
A further test has as its system neuronal receptors. Particulars: binding affinity study; cited from earlier work.
The test system of test [3] is 5-HT1B. Particulars: viloxazine 10 µM.
The target of test [4] is T2, 5-HT2A (Homo sapiens, UniProt P28223). Particulars: concentrations up to 300 µM.
Test [5] addresses T3, 5-HT7 (Homo sapiens, UniProt P34969). Particulars: concentrations up to 100 µM.
Target sequence in this assay (P34969 whole entry): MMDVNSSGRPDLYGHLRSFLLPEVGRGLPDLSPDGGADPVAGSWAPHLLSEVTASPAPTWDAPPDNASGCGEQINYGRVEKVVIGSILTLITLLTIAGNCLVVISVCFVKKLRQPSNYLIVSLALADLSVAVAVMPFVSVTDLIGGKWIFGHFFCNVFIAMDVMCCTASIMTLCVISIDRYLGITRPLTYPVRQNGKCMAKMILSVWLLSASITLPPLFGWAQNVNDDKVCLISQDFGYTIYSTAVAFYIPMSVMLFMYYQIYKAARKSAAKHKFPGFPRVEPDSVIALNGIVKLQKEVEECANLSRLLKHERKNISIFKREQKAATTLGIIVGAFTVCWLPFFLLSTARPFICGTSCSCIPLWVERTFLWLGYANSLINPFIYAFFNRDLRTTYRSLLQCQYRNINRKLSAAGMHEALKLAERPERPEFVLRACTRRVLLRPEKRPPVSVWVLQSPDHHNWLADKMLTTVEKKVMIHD
A further test addresses 5-HT1A (Homo sapiens, UniProt P08908).
Test [6] addresses 5-HT1B (Homo sapiens, UniProt P28222).
For a further test, the target named is 5-HT1D (Rattus norvegicus, UniProt P28565).
The target of the next test is 5-HT6 (Homo sapiens, UniProt P50406).
Another test deals with ADRα1A (Homo sapiens, UniProt P35348).
The next test deals with ADRα2A (Homo sapiens, UniProt P08913).
In a further test the target is ADRα2B (Homo sapiens, UniProt P18089).
The next test addresses ADRα2C (Homo sapiens, UniProt P18825).
Another test concerns the target ADRβ1 (Homo sapiens, UniProt P08588).
In the next test the target is dopaminergic receptor D1 (Homo sapiens, UniProt P21728).
Test [7] addresses dopaminergic receptor D2S (Homo sapiens, UniProt P14416).
A further test addresses dopaminergic receptor D3 (Homo sapiens, UniProt P35462).
In a further test the target is histaminic receptor H1 (Homo sapiens, UniProt P35367).
Test [8] has as its target cholinergic muscarinic receptor M1 (Homo sapiens, UniProt P11229).
Test [9] deals with cholinergic muscarinic receptor M3 (Homo sapiens, UniProt P20309).
In test [10] the target is cholinergic muscarinic receptor M4 (Homo sapiens, UniProt P08173).
Test [11] deals with extracellular neurotransmitter levels in the PFC, Acb, and Amg. Particulars: viloxazine 50 mg/kg IP, compared to baseline or vehicle.
Test [12] relates to 5-HT2B. Particulars: at all concentrations, clinical doses of 100, 200, 400, and 600 mg/day.
The test system of test [13] is 5-HT2C. Particulars: at all concentrations except at 100 mg/day dose.
Test [14] has as its target T4, 5-HT2C (Homo sapiens, UniProt P28335). Kind of test: cell-based. Particulars: CHO, read-out: Emax, agonistic activity towards 5-HT2C.
The target of test [15] is T5, 5-HT2B (Homo sapiens, UniProt P41595). In words: cell-based.
Test [16] addresses T2, 5-HT2A. Kind of test: cell-based.
The target of test [17] is T3, 5-HT7. In words: cell-based. Particulars: read-out: antagonistic activity at 5-HT7, inhibition.
Target sequence in this assay (P34969 whole entry): as above
The target in the next test is ADRβ2 (Homo sapiens, UniProt P07550). Kind of test: cell-based.
The target of the next test is ADRα1B (Homo sapiens, UniProt P35368). Kind of test: cell-based.
For test [18], the target named is T4, 5-HT2C. In words: biochemical. Particulars: read-out: percent inhibition of the binding of a radiolabeled ligand.
Test [19] deals with NET (Rattus norvegicus, UniProt Q63380). Kind of test: biochemical. Particulars: IC50, inhibition of [3H]-NE uptake (NET), rat hypothalamic synaptosomes.
Test [20] concerns the target monoamine oxidase A (MAO-A) (Rattus norvegicus, UniProt P21396). In words: Cerep Bioprint panel assay: MAO-A. Particulars: read-out: percent inhibition (activity towards MAO-A).
The target of another test is DA receptor D1 (Homo sapiens, UniProt P21728). Kind of test: Cerep Bioprint radioligand binding assay: D1. Particulars: read-out: percent inhibition of the binding of a radiolabeled ligand.
Another test has as its target DA receptor D3 (Homo sapiens, UniProt P35462). Kind of test: Cerep Bioprint radioligand binding assay: D3. Particulars: read-out: percent inhibition of the binding of a radiolabeled ligand.
The next test deals with His receptor H1 (Homo sapiens, UniProt P35367). In words: Cerep Bioprint radioligand binding assay: H1. Particulars: read-out: percent inhibition of the binding of a radiolabeled ligand.
The next test deals with His receptor H2 (Homo sapiens, UniProt P25021). In words: Cerep Bioprint radioligand binding assay: H2. Particulars: read-out: percent inhibition of the binding of a radiolabeled ligand.
In test [21] the target is muscarinic cholinergic receptor M1 (Homo sapiens, UniProt P11229). Kind of test: Cerep Bioprint radioligand binding assay: M1. Particulars: read-out: percent inhibition of the binding of a radiolabeled ligand.
Test [22] concerns the target muscarinic cholinergic receptor M2 (Homo sapiens, UniProt P08172). In words: Cerep Bioprint radioligand binding assay: M2. Particulars: read-out: percent inhibition of the binding of a radiolabeled ligand.
Test [23] has as its target muscarinic cholinergic receptor M3 (Homo sapiens, UniProt P20309). Kind of test: Cerep Bioprint radioligand binding assay: M3. Particulars: read-out: percent inhibition of the binding of a radiolabeled ligand.
The target in test [24] is muscarinic cholinergic receptor M4 (Homo sapiens, UniProt P08173). Kind of test: Cerep Bioprint radioligand binding assay: M4. Particulars: read-out: percent inhibition of the binding of a radiolabeled ligand.
Test [25] has as its target NET (Homo sapiens, UniProt P23975). Kind of test: Cerep Bioprint radioligand binding assay: NET. Particulars: read-out: percent inhibition of the binding of a radiolabeled ligand.
A further test deals with DA receptor D2S (Homo sapiens, UniProt P14416). Kind of test: Cerep Bioprint radioligand binding assay: D2S. Particulars: read-out: percent inhibition of the binding of a radiolabeled ligand.
For the next test, the target named is DAT (Homo sapiens, UniProt Q01959). Kind of test: Cerep Bioprint radioligand binding assay: DAT. Particulars: read-out: percent inhibition (activity towards DAT).
Another test concerns GABA transporter (GAT). Kind of test: Cerep Bioprint radioligand binding assay: GAT. Particulars: viloxazine 10 µM.
For test [26], the target named is T1, SERT. In words: Cerep Bioprint radioligand binding assay: SERT. Particulars: viloxazine 10 µM.
Test [27] deals with T3, 5-HT7. In words: Cerep Bioprint radioligand binding assay: 5-HT7. Particulars: read-out: percent inhibition of the binding of a radiolabeled ligand.
Target sequence in this assay (P34969 whole entry, species assumed): as the sequence (P34969 whole entry) above
In test [28] the target is choline transporter (CHT-1) (Homo sapiens, UniProt Q9GZV3). Kind of test: Cerep Bioprint radioligand binding assay: CHT-1. Particulars: viloxazine 10 µM.
The target in test [29] is T5, 5-HT2B. In words: Cerep Bioprint radioligand binding assay: 5-HT2B.
In test [30] the target is adrenergic alpha1A (ADRα1A) receptor (Homo sapiens, UniProt P35348). Kind of test: Cerep Bioprint radioligand binding assay: ADRα1A. Particulars: read-out: percent inhibition of the binding of a radiolabeled ligand.
For test [31], the target named is adrenergic alpha1B (ADRα1B) receptor (Homo sapiens, UniProt P35368). Kind of test: Cerep Bioprint radioligand binding assay: ADRα1B. Particulars: read-out: percent inhibition of the binding of a radiolabeled ligand.
The next test has as its system DA in the striatum. Particulars: freely moving spontaneously hypertensive rats; cited from earlier work.

Several values for one entry are separate records, joined by “and”; a condition that tells them apart may be missing. Identical values can stand only once. Counter-ions that a name gives are not always drawn.

T5 sequence (P41595 whole entry): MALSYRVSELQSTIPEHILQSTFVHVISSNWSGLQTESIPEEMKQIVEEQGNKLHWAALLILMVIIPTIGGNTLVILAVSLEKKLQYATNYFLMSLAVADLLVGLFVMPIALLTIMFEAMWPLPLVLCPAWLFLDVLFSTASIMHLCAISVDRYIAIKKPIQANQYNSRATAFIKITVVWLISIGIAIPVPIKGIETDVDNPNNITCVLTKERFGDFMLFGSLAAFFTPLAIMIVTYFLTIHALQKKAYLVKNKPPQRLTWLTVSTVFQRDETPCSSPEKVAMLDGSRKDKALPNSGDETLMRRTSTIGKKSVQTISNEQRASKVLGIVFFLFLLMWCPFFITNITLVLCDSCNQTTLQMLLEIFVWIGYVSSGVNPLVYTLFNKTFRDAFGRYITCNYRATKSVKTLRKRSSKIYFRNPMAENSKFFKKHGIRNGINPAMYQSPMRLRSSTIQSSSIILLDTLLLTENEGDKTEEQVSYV
Sequence of dopaminergic receptor D2S (P14416 1-414 isoform P14416-2): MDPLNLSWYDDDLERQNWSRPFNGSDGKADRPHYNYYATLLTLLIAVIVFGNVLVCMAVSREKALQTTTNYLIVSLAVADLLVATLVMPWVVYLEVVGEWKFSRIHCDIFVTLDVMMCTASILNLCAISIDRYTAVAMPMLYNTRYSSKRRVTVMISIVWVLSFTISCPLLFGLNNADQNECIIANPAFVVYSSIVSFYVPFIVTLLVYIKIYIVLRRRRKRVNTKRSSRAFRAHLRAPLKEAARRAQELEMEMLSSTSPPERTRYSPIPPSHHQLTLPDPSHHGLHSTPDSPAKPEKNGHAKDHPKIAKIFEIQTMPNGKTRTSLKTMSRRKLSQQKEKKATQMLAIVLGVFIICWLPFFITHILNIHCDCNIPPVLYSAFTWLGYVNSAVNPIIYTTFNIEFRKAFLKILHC
T1 sequence (P31645 whole entry, species assumed): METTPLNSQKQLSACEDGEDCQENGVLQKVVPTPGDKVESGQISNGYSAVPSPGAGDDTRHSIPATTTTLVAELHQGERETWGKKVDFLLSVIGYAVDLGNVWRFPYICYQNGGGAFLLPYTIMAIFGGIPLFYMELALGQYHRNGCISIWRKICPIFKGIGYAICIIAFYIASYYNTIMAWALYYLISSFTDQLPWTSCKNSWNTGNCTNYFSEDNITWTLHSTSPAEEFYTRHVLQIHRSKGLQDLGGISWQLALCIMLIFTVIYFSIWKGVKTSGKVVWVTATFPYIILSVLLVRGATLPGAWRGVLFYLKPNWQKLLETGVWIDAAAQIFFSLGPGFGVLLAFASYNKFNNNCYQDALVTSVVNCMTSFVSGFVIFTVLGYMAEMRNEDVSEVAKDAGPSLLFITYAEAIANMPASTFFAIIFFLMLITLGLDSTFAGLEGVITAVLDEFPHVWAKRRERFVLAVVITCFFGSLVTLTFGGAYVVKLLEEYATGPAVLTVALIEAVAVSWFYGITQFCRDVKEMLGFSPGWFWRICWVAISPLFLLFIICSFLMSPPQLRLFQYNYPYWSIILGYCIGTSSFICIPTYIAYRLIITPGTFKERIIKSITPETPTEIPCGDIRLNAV
Sequence of cholinergic muscarinic receptor M3 (P20309 whole entry): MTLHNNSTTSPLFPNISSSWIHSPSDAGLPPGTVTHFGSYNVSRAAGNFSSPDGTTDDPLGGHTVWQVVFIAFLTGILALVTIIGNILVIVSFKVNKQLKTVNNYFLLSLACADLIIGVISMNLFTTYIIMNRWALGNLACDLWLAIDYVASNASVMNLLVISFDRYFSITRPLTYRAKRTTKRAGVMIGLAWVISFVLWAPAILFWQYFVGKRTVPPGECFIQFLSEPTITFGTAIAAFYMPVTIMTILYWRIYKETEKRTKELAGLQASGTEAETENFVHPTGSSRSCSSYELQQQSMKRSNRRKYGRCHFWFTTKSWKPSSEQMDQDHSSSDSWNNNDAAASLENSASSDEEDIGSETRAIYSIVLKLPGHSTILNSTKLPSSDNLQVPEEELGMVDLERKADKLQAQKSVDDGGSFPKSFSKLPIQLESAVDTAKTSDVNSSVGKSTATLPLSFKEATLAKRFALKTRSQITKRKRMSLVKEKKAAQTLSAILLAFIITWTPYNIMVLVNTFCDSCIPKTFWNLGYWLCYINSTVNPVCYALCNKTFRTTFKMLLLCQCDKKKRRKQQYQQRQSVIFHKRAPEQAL
T2 sequence (P28223 whole entry, species assumed): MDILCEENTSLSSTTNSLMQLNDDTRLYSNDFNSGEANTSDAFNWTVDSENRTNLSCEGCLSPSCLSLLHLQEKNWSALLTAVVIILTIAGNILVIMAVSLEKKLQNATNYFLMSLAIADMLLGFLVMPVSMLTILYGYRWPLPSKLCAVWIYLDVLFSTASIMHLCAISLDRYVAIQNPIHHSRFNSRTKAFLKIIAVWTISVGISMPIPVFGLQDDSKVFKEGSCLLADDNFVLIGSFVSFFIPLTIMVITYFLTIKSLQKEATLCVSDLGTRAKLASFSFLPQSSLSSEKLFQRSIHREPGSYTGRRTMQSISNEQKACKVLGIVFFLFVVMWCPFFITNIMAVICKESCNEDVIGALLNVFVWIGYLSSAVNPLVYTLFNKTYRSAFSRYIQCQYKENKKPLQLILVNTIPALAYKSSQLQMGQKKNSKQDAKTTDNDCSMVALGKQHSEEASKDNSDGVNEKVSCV
Sequence of dopaminergic receptor D1 (P21728 whole entry): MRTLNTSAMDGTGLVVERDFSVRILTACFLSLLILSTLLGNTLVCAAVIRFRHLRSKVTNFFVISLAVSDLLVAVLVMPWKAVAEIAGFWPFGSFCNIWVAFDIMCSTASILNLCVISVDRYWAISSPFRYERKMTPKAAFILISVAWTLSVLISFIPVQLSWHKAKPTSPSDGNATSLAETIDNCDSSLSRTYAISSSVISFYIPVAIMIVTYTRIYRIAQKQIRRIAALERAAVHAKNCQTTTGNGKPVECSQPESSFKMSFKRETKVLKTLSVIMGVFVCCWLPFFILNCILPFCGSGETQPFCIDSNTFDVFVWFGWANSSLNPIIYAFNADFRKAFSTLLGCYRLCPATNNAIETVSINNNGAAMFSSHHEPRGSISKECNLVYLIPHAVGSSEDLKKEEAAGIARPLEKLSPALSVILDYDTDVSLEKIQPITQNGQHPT
Sequence of cholinergic muscarinic receptor M4 (P08173 whole entry): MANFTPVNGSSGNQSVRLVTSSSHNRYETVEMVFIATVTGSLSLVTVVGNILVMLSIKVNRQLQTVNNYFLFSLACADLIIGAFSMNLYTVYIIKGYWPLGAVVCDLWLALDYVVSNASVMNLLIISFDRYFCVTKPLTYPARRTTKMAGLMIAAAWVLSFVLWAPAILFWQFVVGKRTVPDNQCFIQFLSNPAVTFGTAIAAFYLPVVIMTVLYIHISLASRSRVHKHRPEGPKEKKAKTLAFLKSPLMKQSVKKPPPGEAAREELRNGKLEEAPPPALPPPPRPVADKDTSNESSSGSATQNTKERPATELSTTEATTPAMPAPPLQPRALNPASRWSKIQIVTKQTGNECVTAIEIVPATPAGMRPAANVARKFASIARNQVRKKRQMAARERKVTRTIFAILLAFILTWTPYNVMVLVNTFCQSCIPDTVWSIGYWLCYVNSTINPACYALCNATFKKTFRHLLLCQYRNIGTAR
Sequence of NET (Rattus norvegicus, UniProt Q63380) (Q63380 1-617): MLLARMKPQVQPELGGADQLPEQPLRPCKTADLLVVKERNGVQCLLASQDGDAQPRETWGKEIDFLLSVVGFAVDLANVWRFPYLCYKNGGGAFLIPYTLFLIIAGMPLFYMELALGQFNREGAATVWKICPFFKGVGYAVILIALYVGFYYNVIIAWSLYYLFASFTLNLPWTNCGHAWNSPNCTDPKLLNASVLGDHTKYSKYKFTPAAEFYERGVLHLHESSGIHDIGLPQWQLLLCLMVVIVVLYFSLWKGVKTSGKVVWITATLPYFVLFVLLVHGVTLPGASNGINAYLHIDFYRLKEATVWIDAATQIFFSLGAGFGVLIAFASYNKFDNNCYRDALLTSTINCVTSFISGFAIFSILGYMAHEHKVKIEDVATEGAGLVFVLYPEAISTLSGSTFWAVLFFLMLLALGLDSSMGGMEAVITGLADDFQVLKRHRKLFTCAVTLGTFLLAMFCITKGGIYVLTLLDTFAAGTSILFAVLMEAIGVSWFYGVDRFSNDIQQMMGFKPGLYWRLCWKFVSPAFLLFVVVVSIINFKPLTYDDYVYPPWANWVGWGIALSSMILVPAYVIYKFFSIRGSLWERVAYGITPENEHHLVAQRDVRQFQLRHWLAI
Sequence of DA receptor D2S (P14416 1-414 isoform P14416-2): as the sequence (P14416 1-414 isoform P14416-2) above
Sequence of muscarinic cholinergic receptor M3 (P20309 whole entry): as the sequence (P20309 whole entry) above
Sequence of DA receptor D1 (P21728 whole entry): as the sequence (P21728 whole entry) above
Sequence of muscarinic cholinergic receptor M4 (P08173 whole entry): as the sequence (P08173 whole entry) above

Regarding `CNCC[C@@H](Oc1ccccc1C)c1ccccc1` [Atomoxetine, atomoxetine], the “effect on 5-HT in rat and mouse PFC by microdialysis” value in [1] is reported as “not found to functionally increase 5-HT”. Moreover, the SERT occupancy on SERT [2] is given as above 85%. Moreover, the “affinity for neuronal receptors” value with neuronal receptors was “does not possess appreciable affinity”.

For the molecule `CCOc1ccccc1OCC1CNCCO1` (centres unmarked) [Viloxazine, Viloxazine hydrochloride], the “percent inhibition of the binding of a radiolabeled ligand” value in the test with 5-HT1B [3] is above 50%. Further, at 5-HT2A [4], the “agonistic effect at 5-HT2A” value was “no agonistic effect”. Besides, at 5-HT7 [5], the “agonistic activity at 5-HT7” value is “no agonistic activity”. For the same molecule, the “agonistic or antagonistic activity towards 5-HT1A” value at 5-HT1A was “did not show any significant agonistic or antagonistic activity”. Moreover, the “agonistic or antagonistic activity towards 5-HT1B” value at 5-HT1B [6] is “did not show any significant agonistic or antagonistic activity”. Moreover, the “agonistic or antagonistic activity towards 5-HT1D” value on 5-HT1D is reported as “did not show any significant agonistic or antagonistic activity”. Besides, the “agonistic or antagonistic activity towards 5-HT6” value on 5-HT6 was “did not show any significant agonistic or antagonistic activity”. Also, at ADRα1A, the “agonistic or antagonistic activity towards ADRα1A” value is “either very weak (IC50 > 150 µM) or no significant agonistic or antagonistic activity”. Further, the “agonistic or antagonistic activity towards ADRα2A” value on ADRα2A is given as “either very weak (IC50 > 150 µM) or no significant agonistic or antagonistic activity”. For the same molecule, at ADRα2B, the “agonistic or antagonistic activity towards ADRα2B” value is given as “either very weak (IC50 > 150 µM) or no significant agonistic or antagonistic activity”. Moreover, the “agonistic or antagonistic activity towards ADRα2C” value at ADRα2C is “either very weak (IC50 > 150 µM) or no significant agonistic or antagonistic activity”. The “agonistic or antagonistic activity towards ADRβ1” value at ADRβ1 is listed as “either very weak (IC50 > 150 µM) or no significant agonistic or antagonistic activity”. For the same molecule, the “antagonistic activity towards D1” value on dopaminergic receptor D1 is given as “either very weak (IC50 > 150 µM) or no antagonistic activity”. Besides, the “agonistic activity towards D1” value on dopaminergic receptor D1 (concentrations up to 300 µM) is on record as “no significant agonistic activity”. For the same molecule, the “antagonistic activity towards D2S” value in test [7] is listed as “either very weak (IC50 > 150 µM) or no antagonistic activity”. In [7] (concentrations up to 300 µM), the “agonistic activity towards D2S” value is recorded as “no significant agonistic activity”. Besides, the “antagonistic activity towards D3” value on dopaminergic receptor D3 is on record as “either very weak (IC50 > 150 µM) or no antagonistic activity”. For the same molecule, at dopaminergic receptor D3 (concentrations up to 300 µM), the “agonistic activity towards D3” value was “no significant agonistic activity”. Further, the “antagonistic activity towards H1” value on histaminic receptor H1 was “either very weak (IC50 > 150 µM) or no antagonistic activity”. Also, at histaminic receptor H1 (concentrations up to 300 µM), the “agonistic activity towards H1” value is listed as “no significant agonistic activity”. Also, in test [8], the “antagonistic activity towards M1” value is “either very weak (IC50 > 150 µM) or no antagonistic activity”. In test [8] (concentrations up to 300 µM), the “agonistic activity towards M1” value was “no significant agonistic activity”. Also, in test [9], the “antagonistic activity towards M3” value is given as “either very weak (IC50 > 150 µM) or no antagonistic activity”. Moreover, in test [9] (concentrations up to 300 µM), the “agonistic activity towards M3” value is “no significant agonistic activity”. Further, in [10], the “antagonistic activity towards M4” value was “either very weak (IC50 > 150 µM) or no antagonistic activity”. In addition, in test [10] (concentrations up to 300 µM), the “agonistic activity towards M4” value is on record as “no significant agonistic activity”. For the same molecule, the “change in extracellular level of ACh” value in test [11] is recorded as “No significant changes”. The “change in extracellular level of GABA” value in [11] was “No significant changes”. For the same molecule, the “change in extracellular level of Glu” value in test [11] is “No significant changes”. The “change in extracellular level of His” value in test [11] is recorded as “No significant changes”. Besides, the “calculated 5-HT2B occupancy at clinical doses” value in the test with 5-HT2B [12] is reported as “higher than 80%”. The “calculated 5-HT2C occupancy at clinical doses” value with 5-HT2C [13] was “higher than 80%”. For the same molecule, the maximum response (Emax) – broadly, the size of the effect at its maximum, as opposed to the concentration needed – on 5-HT2C [14] came out at 78.6%. Moreover, the IC50 (usually the concentration that gives 50% inhibition) is 27 µM against 5-HT2B [15]; above 300 µM against 5-HT2A [16]; 68 µM against ADRβ2; 93 µM at ADRα1B; 0.26 µM and ~0.3 µM on NET [19]. The inhibition (commonly the drop in the measured response relative to a control, in per cent) at 100 µM at 5-HT7 [17] turned out to be 52%. Besides, the inhibition at 10 µM is above 50% on 5-HT2C [18]; around 10% in [20]; below 25% on DA receptor D1; below 25% on DA receptor D3; below 25% at His receptor H1; below 25% at His receptor H2. Moreover, the inhibition at 10 µM in test [21] is below 25%; in test [22] it was below 25%; in test [23], below 25%; in test [24] it was below 25%; at NET [25], above 50%; at DA receptor D2S it was below 25%. The inhibition at 10 µM is around 10% at DAT; above 50% at 5-HT7 [27]; above 50% on 5-HT2B [29] (read-out: percent inhibition of the binding of a radiolabeled ligand); above 50% in test [30]; above 50% in test [31]. Also, the “binding to the GABA transporter (GAT)” value in the test on GABA transporter (GAT) is listed as “negligible binding”. Moreover, the “binding to SERT” value on SERT [26] is “negligible binding”. Also, in test [28], the “binding to the choline transporter (CHT-1)” value is listed as “negligible binding”. Further, on 5-HT2B [29] (Ki for 5-HT2B, constant of binding used for receptor occupancy), affinity was put at a Ki of 6.4 µM.

Consider `C[C@H](N)Cc1ccccc1` [d-amphetamine], for which the “increase of DA from the baseline level in the striatum” value in the test with DA in the striatum is listed as 700%.

Take `C[C@@H](N)Cc1ccccc1` [l-amphetamine]: in the test with DA in the striatum, the “increase of DA from the baseline level in the striatum” value is 1,200%.
